Reference: the supplement of paper PMC11451515

Tests used:
SEM cells [1] = experiment: cell viability relative to DMSO control; higher = less cytotoxic; details: 48 h
Method in brief: (§1)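 Viability was expressed as a per-plate percentage of DMSO wells, with cell-free wells as background. Leukemia cells (NOMO1 or SEM at 500 cells/well, P12-Ichikawa at 1000 cells/well) were adapted for at least four passages in each medium and seeded in 1536-well plates (5 μl). Library compounds in DMSO were pin-dosed over an 11-point threefold series from 47 μM to 0.79 nM, and CellTiter-Glo One luminescence was read after 48 h at 37°C.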

P12-Ichikawa [2] = experiment: AUC of viability dose-response curve (% viability x log10 dose units); higher = less sensitive; details: 48 h
Method in brief: (§2)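 Seeding of medium-adapted leukemia cells was at 500 or 1000 cells/well in 1536-well plates, followed by 48 h at 37°C with library compounds in DMSO at 11 threefold doses from 47 μM to 0.79 nM. CellTiter-Glo One luminescence was normalised per plate to DMSO and cell-free wells and fitted as a four-parameter log-logistic function of log10 dose. Area under the curve was integrated by trapezoidal rule, with curves exceeding full viability scaled and curves failing quality control removed.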

NOMO1 [3] = experiment: as above; details: 48 h
Method in brief: as §2

SEM cells [4] = experiment: as above; details: 48 h
Method in brief: as §2

P12-Ichikawa [5] = experiment: cell viability relative to DMSO control; higher = less cytotoxic; details: 48 h
Method in brief: as §1

NOMO1 [6] = experiment: as above; details: HPLM + 10% dialyzed FBS, 48 h
Method in brief: as §1

C[C@@H]1O[C@@H](O[C@H]\2CC[C@]\3(C)[C@@H]4CC[C@]5(C)[C@@H](CC[C@@]5(O)[C@H]4CCC3=C2)C/6=C/OC(=O)/C=C6)[C@H](O)[C@H](O)[C@@H]1O
SEM cells [1], HPLM + 10% dialyzed FBS
Details	cell viability [%]
0.000781 µM	124
0.00234 µM	121
0.00702 µM	109
0.0211 µM	79.3
0.0632 µM	11.6
0.19 µM	12.5
0.569 µM	9.21
1.71 µM	8.61
5.12 µM	8.87
15.4 µM	7.79
46.1 µM	4.4

AUC of viability dose-response curve
Details	NOMO1 [3]	P12-Ichikawa [2]	SEM cells [4]
HPLM + 10% dialyzed FBS	187	181	173
RPMI 5 mM glucose + 10% FBS	214	197	193
RPMI 5 mM glucose + 10% dialyzed FBS	193	173	186

CN1CCN(c2cccc(Nc3nc4c(-c5ccc([S+](C)(=O)[O-])cc5)cccn4n3)c2)CC1
AUC of viability dose-response curve
Details	NOMO1 [3]	P12-Ichikawa [2]	SEM cells [4]
HPLM + 10% dialyzed FBS	438	453	379
RPMI 5 mM glucose + 10% FBS	449	427	375
RPMI 5 mM glucose + 10% dialyzed FBS	450	435	372

CCN(CC)CCOC1=CC=C(NC2=NC=C3\C=C(/C(=O)N(C)C3=N2)C4=C(Cl)C=CC=C4Cl)C=C1
cell viability [%]
Details	HPLM + 10% dialyzed FBS	RPMI 5 mM glucose + 10% FBS	RPMI 5 mM glucose + 10% dialyzed FBS
P12-Ichikawa [5], 0.000781 µM	107	122	118
P12-Ichikawa [5], 0.00234 µM	114	120	124
P12-Ichikawa [5], 0.00702 µM	109	118	122
P12-Ichikawa [5], 0.0211 µM	84.8	85.2	94.6
P12-Ichikawa [5], 0.0632 µM	111	109	109
P12-Ichikawa [5], 0.19 µM	96.5	101	96.9
P12-Ichikawa [5], 0.569 µM	99.6	113	111
P12-Ichikawa [5], 1.71 µM	109	106	113
P12-Ichikawa [5], 5.12 µM	21.8	13.3	12.1
P12-Ichikawa [5], 15.4 µM	5.01	4.01	4.8
P12-Ichikawa [5], 46.1 µM	4.01	6.43	6.66
SEM cells [1], 0.000781 µM	94.9	78.3	92.5
SEM cells [1], 0.00234 µM	101	67.6	102
SEM cells [1], 0.00702 µM	105	74.7	106
SEM cells [1], 0.0211 µM	74.5	52.1	68.3
SEM cells [1], 0.0632 µM	67.9	48.6	76.1
SEM cells [1], 0.19 µM	58.4	44.8	69.1
SEM cells [1], 0.569 µM	56.8	38.2	61.1
SEM cells [1], 1.71 µM	56	45.8	59.8
SEM cells [1], 5.12 µM	10.9	11.7	13.5
SEM cells [1], 15.4 µM	6.61	7.2	8.59
SEM cells [1], 46.1 µM	4.15	2.88	3.75

Details	AUC of viability dose-response curve	cell viability [%]
NOMO1 [3], HPLM + 10% dialyzed FBS	343	–
NOMO1 [3], RPMI 5 mM glucose + 10% FBS	359	–
NOMO1 [3], RPMI 5 mM glucose + 10% dialyzed FBS	355	–
NOMO1 [6], 0.000781 µM	–	116
NOMO1 [6], 0.00234 µM	–	138
NOMO1 [6], 0.00702 µM	–	121
NOMO1 [6], 0.0211 µM	–	115
NOMO1 [6], 0.0632 µM	–	108
NOMO1 [6], 0.19 µM	–	96.4
NOMO1 [6], 0.569 µM	–	97.5
NOMO1 [6], 1.71 µM	–	80.5
NOMO1 [6], 5.12 µM	–	16.1
NOMO1 [6], 15.4 µM	–	10.1
NOMO1 [6], 46.1 µM	–	2.65
P12-Ichikawa [2], HPLM + 10% dialyzed FBS	371	–
P12-Ichikawa [2], RPMI 5 mM glucose + 10% FBS	365	–
P12-Ichikawa [2], RPMI 5 mM glucose + 10% dialyzed FBS	367	–
